Values of other authors as cited in patent US9758831B2, “Methods of predicting clinical course and treating multiple sclerosis” (Tel HaShomer Medical Research Infrastructure and Services …, priority 2009, dated 2017).

Experiments:
[1] = system: activated macrophages
[2] = system: dendritic cells
[3] = system: T lymphocyte
[4] = system: Experimental Autoimmune Encephalomyelitis; settings: in vivo
[5] = system: RRN3
[6] = system: RRN3/rpa43 complex; settings: in vivo

SMILES	TNF-a and IL-6 production [1]	maturation, antigen processing and presentation of dendritic cells [2]	IFNγ production [3]	T cell apoptosis [3]	lymphocyte proliferation [3]	IL2 and IL2 receptor expression ([3]; activated T cells)	T-cell inflammatory responses [4]	effect on Experimental Autoimmune Encephalomyelitis [4]	association of RRN3 with RNA polymerase I [5]	phosphorylation of RRN3 [5]	formation of RRN3/rpa43 complex [6]
CC(C)[C@]12O[C@H]1[C@@H]1O[C@]13[C@]1(O[C@H]1C[C@H]1C4=C(CC[C@@]13C)C(=O)OC4)[C@@H]2O [Triptolide, Trisoxireno(4b,5:6,7:8a,9)phenanthro(1,2-c)furan-1(3H)-one, 3b,4,4a,6,6a,7a,7b,8b,9,10-decahydro-6-hydroxy-8b-methyl-6a-(1-methylethyl)-, (3bS,4aS,5aS,6R,6aR,7aS,7bS,8aS,8bS)-]	can suppress	can inhibit	inhibition	T cell apoptosis induction	inhibition of lymphocyte prolipheration	decreased	modulates T-cell inflammatory responses	ameliorates Experimental Autoimmune Encephalomyelitis	–	–	–
C[C@@H]1C[C@@H]([C@H](O)CC2CC(=O)NC(=O)C2)C(=O)[C@@H](C)C1 [Cycloheximide]	–	–	–	–	–	–	–	–	causes its dissociation from RNA polymerase I	inhibits the phosphorylation of RRN3	inhibits the formation of a RRN3/rpa43 complex in vivo
